Test results as given in patent US20240252456A1, “ORAL COMPOSITION, SKIN COSMETIC AND HAIR COSMETIC” (MARUZEN PHARMACEUTICALS CO., LTD., priority 2021, published 2024).

Columns and labels:
[1] = target: T1, elastase type III (Sus scrofa, UniProt P00772); assay: Elastase activity inhibitory action test; type: biochemical; conditions: read-out: Elastase activity inhibition rate; for inhibition at 1000 µM: 1000 μmol/L
T1 construct: purchased SIGMA-Aldrich type III
Description: In a 96-well microplate, 50 μL of each of test samples (Samples 1 to 3, see Table 8 below for final concentrations) prepared with 0.2 mol/L Tris-HCl buffer solution (pH 8.0) and 50 μL of 20 μg/mL elastase type III (available from SIGMA-Aldrich) solution was mixed. After that, 100 μL of 0.4514 mg/mL N-succinyl-Ala-Ala-Ala-p-nitroanilide (available from SIGMA-Aldrich) prepared with the above buffer solution was added, and the mixture was reacted at 25° C. for 15 minutes. After the reaction was completed, the absorbance at a wavelength of 415 nm was measured. In addition, a blank test without enzyme addition was performed in the same manner and correction was made. From the obtained results, the elastase activity inhibition rate (%) was calculated using the following equation.
(§1) Terms in the equation represent the following respective ones. • A: Absorbance at wavelength 415 nm without sample addition and with enzyme addition • B: Absorbance at wavelength 415 nm without sample addition and without enzyme addition • C: Absorbance at wavelength 415 nm with test sample addition and with enzyme addition • D: Absorbance at wavelength 415 nm with test sample addition and without enzyme addition

[2] = target: T2, hyaluronidase (Type IV-S) (Bos taurus, UniProt Q2YDK3); assay: Hyaluronidase activity inhibitory action test; type: biochemical, bovine; conditions: read-out: Hyaluronidase activity inhibition rate; for inhibition at 250 µM: 250 μmol/L; for inhibition at 1000 µM: 1000 μmol/L
T2 construct: purchased SIGMA Type IV-S; host or cells: bovine testes
T2 sequence (Q2YDK3 36-553): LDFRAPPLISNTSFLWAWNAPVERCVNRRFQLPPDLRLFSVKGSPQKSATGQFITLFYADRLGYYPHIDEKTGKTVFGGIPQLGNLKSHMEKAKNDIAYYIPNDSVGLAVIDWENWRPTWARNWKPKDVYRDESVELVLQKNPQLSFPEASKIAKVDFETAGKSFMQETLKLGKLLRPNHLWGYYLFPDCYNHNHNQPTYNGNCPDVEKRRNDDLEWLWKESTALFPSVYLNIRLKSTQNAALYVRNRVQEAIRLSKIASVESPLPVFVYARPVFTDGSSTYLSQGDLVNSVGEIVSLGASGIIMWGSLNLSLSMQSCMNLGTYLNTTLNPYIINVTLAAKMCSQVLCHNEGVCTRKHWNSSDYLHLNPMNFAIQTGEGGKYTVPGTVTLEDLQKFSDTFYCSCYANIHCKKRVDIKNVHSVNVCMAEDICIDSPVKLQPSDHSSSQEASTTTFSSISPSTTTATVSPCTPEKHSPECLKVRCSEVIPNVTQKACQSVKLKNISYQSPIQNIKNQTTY
Description: To 0.2 mL of each of test samples (Samples 1 to 3, see Table 27 below for final concentrations) dissolved in 0.1 mol/L acetate buffer solution (pH 3.5), 0.1 mL of hyaluronidase solution (available from SIGMA, Type IV-S, from bovine tests, 400 NF units/mL) was added, and the mixture was statically placed at 37° C. for 20 minutes. Furthermore, 0.2 mL of 2.5 mmol/L calcium chloride was added as an activator, and the mixture was statically placed at 37° C. for 20 minutes. To this was added 0.5 mL of 0.8 mg/mL sodium hyaluronate solution (from rooster comb), and the mixture was reacted at 37° C. for 40 minutes. After that, 0.2 mL of 0.4 mol/L sodium hydroxide was added to stop the reaction, it was cooled, and then 0.2 mL of boric acid solution was added to each reaction solution, which was boiled for 3 minutes. After cooling on ice, 6 mL of p-DABA reagent was added and reacted at 37° C. for 20 minutes. After that, the absorbance at a wavelength of 585 nm was measured.
In addition, as a blank, the same operation and absorbance measurement were performed in the case in which no enzyme solution was added. Furthermore, as a control, the same measurement was performed in the case in which distilled water was added without adding the sample solution. From the obtained results, the hyaluronidase activity inhibition rate (%) was calculated using the following equation.
as §1, with “wavelength 585” for “wavelength 415”, “nm with test” for “nm without”, “nm without” for “nm with test”

[3] = test system: Normal human liver cells (hepatocytes); assay: ATP production promotive action test in hepatocytes; type: cell-based; conditions: 2 hours
Description: Normal human liver cells (hepatocytes) were cultured using Dulbecco's modified Eagle's medium (DMEM) containing 10% FBS, and then the cells were collected by a trypsin treatment. The collected cells were diluted with DMEM containing 10% FBS to a cell density of 2.0×10^5 cells/mL, then seeded with 100 μL per well in a 96-well plate, and cultured overnight.
After the culturing was completed, the medium was removed, 100 μL of each of test samples (Samples 1 to 3, see Table 31 below for final concentrations) dissolved in DMEM containing 10% FBS was added to each well, and culturing was performed for 2 hours. As a control, culturing was performed in the same manner using DMEM containing 10% FBS to which no sample was added.
The ATP production promotive action was evaluated by measuring the amount of ATP in cells using the firefly luciferase luminescence method. That is, after culturing for 2 hours, 100 μL of an ATP measurement reagent (available from Toyo B-Net Co., Ltd., trade name “‘Cellular’ ATP measurement reagent”) was added to each well, and chemiluminescence reaction using luciferase was performed. After the reaction, the amount of chemiluminescence proportional to the amount of intracellular ATP was measured using a chemiluminescence measurement device (available from Thermo Fisher Scientific, product name: Varioskan LUX multimode microplate reader). From the obtained results, the ATP production promotion rate (%) was calculated using the following equation.
Terms in the equation represent the following respective ones. • A: Chemiluminescence amount with test sample addition • B: Chemiluminescence amount without sample addition

T1 sequence (P00772 27-266): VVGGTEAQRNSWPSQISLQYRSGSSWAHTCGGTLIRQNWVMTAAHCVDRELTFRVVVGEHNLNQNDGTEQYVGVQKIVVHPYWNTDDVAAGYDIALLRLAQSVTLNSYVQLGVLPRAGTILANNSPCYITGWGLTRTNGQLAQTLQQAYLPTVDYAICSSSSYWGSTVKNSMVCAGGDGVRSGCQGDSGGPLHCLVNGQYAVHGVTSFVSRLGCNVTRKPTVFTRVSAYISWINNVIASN

Structure (SMILES) | inhibition at 1000 µM [1] [%] | inhibition at 62.5 µM ([2]; 62.5 μmol/L) [%] | inhibition at 250 µM [2] [%] | inhibition at 1000 µM [2] [%] | ATP production promotion rate ([3]; 250 μmol/L) [%] | ATP production promotion rate ([3]; 500 μmol/L) [%] | ATP production promotion rate ([3]; 1000 μmol/L) [%] | inhibition at 250 µM ([1]; 250 μmol/L) [%] | inhibition at 500 µM ([1]; 500 μmol/L) [%]
O=C(O)CCc1ccccc1 [Sample 3, 3-phenylpropionic acid] | 5 | 16.5 | 20.2 | 41.1 | 128.0 | 136.5 | 156.1 |  | 
O=C(O)CCc1ccc(O)c(O)c1 [Sample 1, 3,4-Dihydroxyhydrocinnamic acid] | 8.1 |  | 4.9 | 19.9 | 128.4 | 166.8 | 168.9 | 3.2 | 6.7
O=C(O)CCc1ccc(O)cc1 [Sample 2, 3-(4-Hydroxyphenyl)propionic acid] | 4.2 |  |  | 15.8 | 141.9 | 159.1 | 165.1 |  | 
